The values below come from PMC6804243, “Small-Molecule Inhibition of UBE2T/FANCL-Mediated Ubiquitylation in the Fanconi Anemia Pathway” (ACS Chemical Biology, 2019).

“Also recorded” adds a separate entry of the source. Like-named read-outs stand apart in the source and are kept apart here.

The subject of one experiment is T1, UBE2T / GST-FANCLRING
T1 construct: the RING domain (residues 275–375) of the E3 FANCL (FANCLRING); His6 (N); made in house; host or cells: E. coli Rosetta (DE3)
In words: Gel-based ubiquitylation assay, E2 = UBE2T, E3 = GST-FANCLRING
The experiment is classed as biochemical. As to conditions: compound 100 μM, 30 min at 37 °C, Western blot. (In general: Immunoblotting shows a protein as a band on a membrane.)

The target of experiment [1] is T2, UBE2T/FANCLRING (ubiquitylation of GST-FANCLRING) (Homo sapiens, UniProt Q9NW38).
T2 sequence (Q9NW38 275-375 limits assumed): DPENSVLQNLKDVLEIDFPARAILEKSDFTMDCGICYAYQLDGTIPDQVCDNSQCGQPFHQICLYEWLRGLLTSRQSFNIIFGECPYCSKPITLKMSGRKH
In words: biochemical. As to conditions: for LE: ligand efficiency = 1.4(–logIC50)/HAC; for inhibition at 20 µM: read-out: Primary screen % Inhibition (20 M). The text has this: To identify small-molecule inhibitors of the FA pathway, we developed a high-throughput screen (HTS) compatible assay based on the FA ubiquitylation cascade (see Figure 1a, as well as Figure S1 in the Supporting Information). Given the complexity of the full FA ubiquitylation cascade, we constructed a simplified ubiquitylation reaction that would be robust for HTS purposes yet still provide many relevant protein species for small molecules to interact with. The recombinant protein assay developed used homogeneous time-resolved fluorescence (HTRF) and contained Cy5-labeled ubiquitin, the E1 enzyme UBE1, the E2 enzyme UBE2T, and the RING domain (residues 275–375) of the E3 FANCL (FANCLRING). FANCLRING was used as a surrogate substrate for ubiquitylation in the absence of the FA core and FANCD2/FANCI complexes.
Figure 1 Screening for inhibitors of the FA pathway. (a) Schematic of the HTRF ubiquitylation assay. Ubiquitylation of GST-tagged E3 (FANCLRING) by the E2 (UBE2T) places Cy5-labeled ubiquitin in close proximity to the anti-GST Tb cryptate. Excitation of the Tb cryptate donor results in FRET to the Cy5 acceptor. Simultaneous monitoring of the donor emission (620 nm) and acceptor emission (665 nm) allows for determination of the 665/620 ratio. (b) HTRF screen results showing average inhibition (n = 2) produced by compounds at 20 μM (in-house diversity library; 10 111 compounds) and 10 μM (Selleckchem epigenetic library; 119 compounds). Numbers given in parentheses represent the number of compounds per inhibition threshold.
Purified protein was concentrated using a Vivaspin-6 concentrator with a 10 kDa MW cut-off (Vivascience) and flash-frozen in small aliquots for storage at […]
Cy5 labelling of ubiquitin. To a 5 mg/mL solution of recombinant human ubiquitin (Boston Biochem) in 0.1 M NaHCO3 pH 8.3, was added a 4-fold molar excess of Cyanine5 NHS ester (Lumiprobe). The reaction was incubated at 23 °C for 4 hours in the dark. The protein was separated from unreacted dye by passage through a PD-10 desalting column (GE Healthcare) equilibrated with PBS. Purified protein was concentrated using a Vivaspin-6 concentrator with a 3 kDa MW cut-off (Vivascience) and flash-frozen in small aliquots for storage […]
Homogeneous Time-Resolved Fluorescence (HTRF) Assay. GST-FANCLRING (200 nM) was incubated with anti-GST Tb (CisBio, #61GSTTL) (2.5 ng final) at room temperature for 30 minutes in assay buffer (50 mM Tris-HCl pH 8.0, 1 mM TCEP, 5 mM MgCl2, 0.005% Tween-20). Meanwhile, 10 μL of UBE2T in assay buffer (or assay buffer alone for no enzyme controls) was incubated in a white 384-well plate (Corning) with 20 nL DMSO or compound in DMSO. After 30 minutes, the GST-RINGRING solution was added to an equal volume solution containing His-UBE1 (Boston Biochem) (16 nM), Cy5-ubiquitin (400 nM), ATP (0.8 mM) in assay buffer. 10 μL of this solution was immediately added to each well of the 384 -well plate containing UBE2T or buffer. F inal concentrations: His -UBE1 (4 nM), UBE2T (6 nM), GST -RINGRING (50 nM), Cy5-ubiquitin (100 nM), ATP (0.2 mM), compound (10 or 20 μM) in 0.1 %
(v/v) DMSO. After a 10 minute incubation at 23 °C, 5 µL of a 50 mM EDTA solution were added to each well to stop the reaction. Signal was measured at λEx 340 nm and λEm 665 nm and 620 nm using a PHERAstar FS plate reader
(BMG Labtech). A ratio was calculated as [λEm(665)/λEm(620)] × 104 for each well and this was used to determine the percent inhibition for test compounds.
Gel-based ubiquitylation assays. Assays were carried out in a total volume of 10 µL containing 20 nM His6-UBE1 (Boston Biochem), 50 nM UBE2T, 250 nM GST-E3 and 500 nM biotinylated ubiquitin (Boston Biochem) in buffer (50

The mark [2] stands for this setting: library stock, 10-point dose-response, read-out: Primary screen IC50.
The mark [3] stands for this setting: printed beside the structures in Figure S3, read-out: IC50 (Figure S3).

In the case of `NCCN1C(=O)CC[C@H]2CN(Cc3cccc(-c4ccco4)c3)CC[C@H]21` [CU1], the “ubiquitylation of GST-FANCLRING (mUb-GST-FANCLRING band)” value (“ubiquitylation of GST-FANCLRING” for short) in the experiment with UBE2T / GST-FANCLRING was “no ubiquitylation of FANCLRING was observed; also recorded: inhibit the ubiquitylation of GST-FANCLRING”; in the experiment with UBE2T / GST-FANCLRING (listed as CU 1), “completely inhibited the ubiquitylation of GST-FANCLRING”. Moreover, the IC50 in experiment [1] (setting [2]) amounted to 15.2 µM; in experiment [1] (setting [3]), 56 µM. In experiment [1], this molecule gave an LE of 0.23. For the same molecule, the inhibition at 20 µM in experiment [1] amounted to 48.4%.

Turning to `CCN1CCN(c2cc(C)nc3nc(CN4CCCCC4C)nn23)CC1` (stereo not drawn) [CU2], the “ubiquitylation of GST-FANCLRING” value in the experiment with UBE2T / GST-FANCLRING was “no ubiquitylation of FANCLRING was observed; also recorded: inhibit the ubiquitylation of GST-FANCLRING; also recorded: completely inhibited the ubiquitylation of GST-FANCLRING”. For the same molecule, the figures for the IC50 in experiment [1] (setting [2]) and in experiment [1] (setting [3]) were 8.4 µM and 14.8 µM, respectively. The molecule further gave an LE in experiment [1] of 0.26. Further, in experiment [1], the inhibition at 20 µM came out at 63.4%.

For `Cc1nnc(N(C)CC2CCN(CC(C)O)CC2)c(C#N)c1C` (stereo not drawn) [CU9], in the experiment on UBE2T / GST-FANCLRING, the “ubiquitylation of GST-FANCLRING” value was “no ubiquitylation of FANCLRING was observed; also recorded: inhibit the ubiquitylation of GST-FANCLRING; also recorded: completely inhibited the ubiquitylation of GST-FANCLRING”. Further, in experiment [1] (setting [2]), the IC50 came to 31.4 µM. In addition, in experiment [1], the LE was determined as 0.26 and the inhibition at 20 µM was 48.2%. Moreover, the IC50 in experiment [1] (setting [3]) worked out at 45.4 µM.

`NC(=O)[C@@H]1CCCN1C(=O)c1cc(-n2cccc2)ccc1Cl` [CU12]: in the experiment on UBE2T / GST-FANCLRING, the “ubiquitylation of GST-FANCLRING” value was “no ubiquitylation of FANCLRING was observed”. Besides, the IC50 was found to be 11.5 µM in experiment [1] (setting [2]) and 9.9 µM in experiment [1] (setting [3]). This molecule also gave an LE in experiment [1] of 0.32. In addition, the inhibition at 20 µM in experiment [1] (primary screen, compound at 20 μM (head prints '20 M'), n = 2) stood at 107%.

One may read the IC50 as the concentration that gives 50% inhibition. In general, inhibition refers to the drop in the measured response relative to a control, in per cent.
